Earlier results on five molecules are cited in patent US20230070788A1, “METHOD FOR DYEING KERATIN MATERIAL, COMPRISING THE USE OF AN ORGANIC C1-C6 ALKOXY SILANE AND A COPOLYMER OF (METH) ACRYLIC ACID AND MALEIC ACID (ANHYDRIDE)” (Henkel AG & Co. KGaA, priority 2019, published 2023).

The conditions of this series: for solubility in water: 25° C.

As to `O=S(=O)([O-])c1ccc(N=Nc2c(O)ccc3ccccc23)cc1.[Na+]` [Acid Orange 7, sodium salt of 4-[(2-hydroxy-1-naphthyl)azo]benzenesulfonate], the solubility in water result is reported as “more than 7 g/L”.
On to `Nc1cc(S(=O)(=O)[O-])cc2cc(S(=O)(=O)[O-])c(N=Nc3ccccc3)c(O)c12.[Na+].[Na+]` [Acid Red 33, disodium salt of 5-amino-4-hydroxy-3-(phenylazo)-naphthalene-2,7-disulphonate], for which the solubility in water was 2.5 mg/mL.
Turning to `O=C([O-])c1c(Cl)c(Cl)c(Cl)c(Cl)c1-c1c2c(Br)cc(=O)c(Br)c-2oc2c(Br)c(O)cc(Br)c12.O=C([O-])c1c(Cl)c(Cl)c(Cl)c(Cl)c1-c1c2c(Br)cc(=O)c(Br)c-2oc2c(Br)c(O)cc(Br)c12.[Na+].[Na+]` [Acid Red 92, disodium salt of 3,4,5,6-tetrachloro-2-(1,4,5,8-tetrabromo-6-hydroxy-3-oxoxanthen-9-yl)benzoic acid], the solubility in water entry is “greater than 10 g/L”.
For the molecule `O=C([O-])C1=NN(c2ccc(S(=O)(=O)[O-])cc2)C(=O)C1N=Nc1ccc(S(=O)(=O)[O-])cc1.[Na+].[Na+].[Na+]` (centres unmarked) [Acid Yellow 23, trisodium salt of 4,5-dihydro-5-oxo-1-(4-sulfophenyl)-4-((4-sulfophenyl)azo)-1H-pyrazole-3-carboxylic acid], under “water at 25° C.”, the “solubility in water (in words)” value is listed as “readily soluble”.
With “mixture of the sodium salts of mono- and disulfonic acids of 2-(2-quinolyl)-1H-indene-1,3(2H)-dione [Acid Yellow 3]”, the solubility in water is 20 mg/mL.
